Drawing on patent US10894784B2, “Heteroarylbenzimidazole compounds” (BAYER PHARMA AKTIENGESELLSCHAFT, priority 2015, dated 2021), this text covers IC50 for 26 molecules.

In the experiment the target is TBK1 (Homo sapiens (Human), UniProt Q9UHD2). Put plainly: TBK1 low ATP kinase assay (in vitro assay 1). The following applies: in vitro assay 1, read-out: TBK1 low ATP kinase assay IC50. The experiment is classed as biochemical.

What is called IC50 is the concentration needed to halve the response being measured.

Sequence of TBK1 (Q9UHD2 whole entry): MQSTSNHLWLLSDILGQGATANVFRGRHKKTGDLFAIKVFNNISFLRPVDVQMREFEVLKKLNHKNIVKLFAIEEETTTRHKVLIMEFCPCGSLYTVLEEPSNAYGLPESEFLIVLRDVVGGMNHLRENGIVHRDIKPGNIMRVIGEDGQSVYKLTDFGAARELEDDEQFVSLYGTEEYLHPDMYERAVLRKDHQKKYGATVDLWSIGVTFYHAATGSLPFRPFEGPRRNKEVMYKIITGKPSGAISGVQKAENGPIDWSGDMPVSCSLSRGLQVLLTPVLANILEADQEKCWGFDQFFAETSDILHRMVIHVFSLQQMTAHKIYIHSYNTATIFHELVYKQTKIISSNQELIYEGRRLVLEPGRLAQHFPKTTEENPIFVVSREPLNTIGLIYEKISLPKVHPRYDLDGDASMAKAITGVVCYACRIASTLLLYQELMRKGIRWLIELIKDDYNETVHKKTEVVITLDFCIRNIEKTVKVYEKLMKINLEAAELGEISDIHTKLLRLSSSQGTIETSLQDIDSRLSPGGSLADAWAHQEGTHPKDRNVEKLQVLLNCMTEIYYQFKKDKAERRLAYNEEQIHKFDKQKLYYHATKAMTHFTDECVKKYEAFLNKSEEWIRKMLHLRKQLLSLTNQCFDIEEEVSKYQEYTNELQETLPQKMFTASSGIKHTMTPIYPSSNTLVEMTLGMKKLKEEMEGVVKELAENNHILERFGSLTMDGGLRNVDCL

For `CC(C)N(C)c1cc(-c2ccc3nc(Nc4cc(CN5CCN(C(=O)CC(F)(F)F)CC5)ccn4)[nH]c3c2)ncn1` [Example 153.02, 3,3,3-trifluoro-1-[4-({2-[(6-{6-[methyl(propan-2-yl)amino]pyrimidin-4-yl}-1H-benzimidazol-2-yl)amino]pyridin-4-yl}methyl)piperazin-1-yl]propan-1-one], the IC50 came out at 5.9 nM. With `CC(c1ccnc(Nc2nc3ccc(-c4cc(C(F)(F)F)ncn4)c(F)c3[nH]2)c1)N1CCN(C(=O)CC(F)(F)F)CC1` (single isomer, unassigned) [Example 173.02, 3,3,3-trifluoro-1-(4-{(1R or 1S)-1-[2-({7-fluoro-6-[6-(trifluoromethyl)pyrimidin-4-yl]-1H-benzimidazol-2-yl}amino)pyridin-4-yl]ethyl}piperazin-1-yl)propan-1-one] the figure was 77.1 nM; with `CC(c1ccnc(Nc2nc3ccc(-c4cnn(CC5CC5)c4)c(F)c3[nH]2)c1)N1CCN(C(=O)C2CC2)CC1` (single isomer, unassigned) [Example 121.03, cyclopropyl(4-{(1R or 1S)-1-[2-({6-[1-(cyclopropylmethyl)-1H-pyrazol-4-yl]-7-fluoro-1H-benzimidazol-2-yl}amino)pyridin-4-yl]ethyl}piperazin-1-yl)methanone], 1.6 nM; with `CC(C)Nc1ncnc(-c2ccc3nc(Nc4cc(CN5CCN(C(=O)CC(F)(F)F)CC5)ccn4)[nH]c3c2)c1F` [Example 193.02, 3,3,3-trifluoro-1-(4-{[2-({6-[5-fluoro-6-(propan-2-ylamino)pyrimidin-4-yl]-1H-benzimidazol-2-yl}amino)pyridin-4-yl]methyl}piperazin-1-yl)propan-1-one], 34.6 nM.

On to `CN(C)c1cc(-c2ccc3nc(Nc4cc(CN5CCN(C(=O)CC(F)(F)F)CC5)ccn4)[nH]c3c2)ccn1` [Example 135.02, 1-(4-{[2-({6-[2-(dimethylamino)pyridin-4-yl]-1H-benzimidazol-2-yl)amino)pyridin-4-yl]methyl}piperazin-1-yl)-3,3,3-trifluoropropan-1-one], for which the IC50 was determined as 23 nM. Take `Cc1cc(-c2ccc3nc(Nc4cc(C(C)N5CCN(C(=O)CC(F)(F)F)CC5)ccn4)[nH]c3c2F)ncn1` (single isomer, unassigned) [Example 172.02, 3,3,3-trifluoro-1-{4-[(1R or 1S)-1-(2-{[7-fluoro-6-(6-methylpyrimidin-4-yl)-1H-benzimidazol-2-yl]amino}pyridin-4-yl)ethyl)piperazin-1-yl}propan-1-one]: the IC50 was 12.1 nM. Take `CC(C)(C)OC(=O)N1CCN(Cc2ccnc(Nc3nc4ccc(-c5cnc(Br)cn5)cc4[nH]3)c2)CC1` [Example 140.01, tert-butyl 4-[(2-{[6-(5-bromopyrazin-2-yl)-1H-benzimidazol-2-yl]amino}pyridin-4-yl)methyl]piperazine-1-carboxylate]: the IC50 worked out at 13 nM. As for `O=C(CC(F)(F)F)N1CCN(Cc2ccnc(Nc3nc4ccc(-c5ccnc(F)c5)cc4[nH]3)c2)CC1` [Example 137.02, 3,3,3-trifluoro-1-{4-[(2-{[6-(2-fluoropyridin-4-yl)-1H-benzimidazol-2-yl]amino}pyridin-4-yl)methyl]piperazin-1-yl}propan-1-one], the IC50 turned out to be 5.8 nM. For `Cc1nccc(-c2ccc3nc(Nc4cc(CN5CCN(C(=O)C6CC6)CC5)ccn4)[nH]c3c2)c1Cl` [Example 130.03, {4-[(2-{[6-(3-chloro-2-methylpyridin-4-yl)-1H-benzimidazol-2-yl]amino}pyridin-4-yl)methyl]piperazin-1-yl}(cyclopropyl)methanone], the IC50 stood at 250 nM. As for `Clc1ccccc1N1CCN(Cc2ccnc(Nc3nc4ccc(-c5nc(C6CC6)no5)cc4[nH]3)c2)CC1` [Example 17.07, N-(4-{[4-(2-chlorophenyl)piperazin-1-yl]methyl}pyridin-2-yl)-6-(3-cyclopropyl-1,2,4-oxadiazol-5-yl)-1H-benzimidazol-2-amine], the IC50 came to 102 nM. Turning to `CN(CC1CC1)c1cc(-c2ccc3nc(Nc4cc(CN5CCN(C(=O)OC(C)(C)C)CC5)ccn4)[nH]c3c2)ncn1` [Example 141.01, tert-butyl 4-({2-[(6-{6-[(cyclopropylmethyl)(methyl)amino]pyrimidin-4-yl}-1H-benzimidazol-2-yl)amino]pyridin-4-yl}methyl)piperazin-1-carboxylate], the IC50 turned out to be 43 nM. Take `COc1cnccc1-c1ccc2nc(Nc3cc(CN4CCN(C(=O)C5CC5(F)F)CC4)ccn3)[nH]c2c1` (racemic) [Example 04.08, ((1RS)-2,2-difluorocyclopropyl){4-[(2-{[6-(3-methoxypyridin-4-yl)-1H-benzimidazol-2-yl]amino}pyridin-4-yl)methyl]piperazin-1-yl}methanone]: the IC50 was found to be 13.8 nM. Then `COc1ncccc1-c1ccc2nc(Nc3cc(CN4CCN(C(=O)C5CC5)CC4)ccn3)[nH]c2c1` [Example 15.03, cyclopropyl{4-[(2-{[6-(2-methoxypyridin-3-yl)-1H-benzimidazol-2-yl]amino}pyridin-4-yl)methyl]piperazin-1-yl}methanone], with 3810 nM. Turning to `CC(c1ccnc(Nc2nc3ccc(-c4cc(OCC(F)(F)C(F)(F)F)ncn4)cc3[nH]2)c1)N1CCN(C(=O)C2CC2)CC1` (single isomer, unassigned) [Example 166.03, cyclopropyl(4-{(1R or 1S)-1-[2-({6-[6-(2,2,3,3,3-pentafluoropropoxy)pyrimidin-4-yl]-1H-benzimidazol-2-yl}amino)pyridin-4-yl]ethyl}piperazin-1-yl)methanone], the IC50 was 21.1 nM. Turning to `COc1c(NC2CCC2)ncnc1-c1ccc2nc(Nc3cc(C(C)N4CCN(C(=O)OC(C)(C)C)CC4)ccn3)[nH]c2c1` (single isomer, unassigned) [Example 114.01, tert-butyl 4-{(1R or 1S)-1-[2-({6-[6-(cyclobutylamino)-5-methoxypyrimidin-4-yl]-1H-benzimidazol-2-yl}amino)pyridin-4-yl]ethyl}piperazine-1-carboxylate], the IC50 turned out to be 61 nM. Then `Cc1noc(-c2ccc3nc(Nc4cc(CN5CCN(C(N)=O)CC5)ccn4)[nH]c3c2)n1` [Example 101.20, 4-[(2-{[6-(3-methyl-1,2,4-oxadiazol-5-yl)-1H-benzimidazol-2-yl]amino}pyridin-4-yl)methyl]piperazine-1-carboxamide], with 560 nM. Take `O=C(CC(F)(F)F)N1CCN(Cc2ccnc(Nc3nc4ccc(-c5cc(OCC6CC6)ncn5)cc4[nH]3)c2)CC1` [Example 80.02, 1-(4-{[2-({6-[6-(cyclopropylmethoxy)pyrimidin-4-yl]-1H-benzimidazol-2-yl}amino)pyridin-4-yl]methyl}piperazin-1-yl)-3,3,3-trifluoropropan-1-one]: the IC50 is 4.5 nM. With `Cc1ncc(C)c(-c2ccc3nc(Nc4cc(CN5CCN(C(=O)OC(C)(C)C)CC5)ccn4)[nH]c3c2)n1` [Example 33.01, tert-butyl 4-[(2-{[6-(2,5-dimethylpyrimidin-4-yl)-1H-benzimidazol-2-yl]amino}pyridin-4-yl)methyl]piperazine-1-carboxylate], the IC50 came to 3540 nM. With `Cc1noc(-c2ccc3nc(Nc4cc(CN5CCN(C(=O)CC(F)(F)F)CC5)ccn4)[nH]c3c2C)n1` [Example 54.01, 3,3,3-trifluoro-1-{4-[(2-{[7-methyl-6-(3-methyl-1,2,4-oxadiazol-5-yl)-1H-benzimidazol-2-yl]amino}pyridin-4-yl)methyl]piperazin-1-yl}propan-1-one] the figure was 243 nM; with `Cc1noc(-c2ccc3nc(Nc4cc(C(C)N5CCN(C(=O)C6CC6(F)F)CC5)ccn4)[nH]c3c2)n1` (single isomer, unassigned) [Example 16.06.05, ((1RS)-2,2-difluorocyclopropyl){4-[(1R or 1S)-1-(2-{[6-(3-methyl-1,2,4-oxadiazol-5-yl)-1H-benzimidazol-2-yl]amino}pyridin-4-yl)ethyl]piperazin-1-yl}methanone], 18.1 nM; with `Cc1cc(-c2ccc3nc(Nc4cc(CN5CCN(C(=O)CC(F)(F)F)CC5)ccn4)[nH]c3c2)ccn1` [Example 01.03, 3,3,3-trifluoro-1-{4-[(2-{[6-(2-methylpyridin-4-yl)-1H-benzimidazol-2-yl]amino}pyridin-4-yl)methyl]piperazin-1-yl}propan-1-one], 53.5 nM. With `COc1cncnc1-c1ccc2nc(Nc3cc(C(C)N4CCN(C(=O)CC(F)(F)F)CC4)ccn3)[nH]c2c1` (racemic) [Example 35.02.01, (rac)-3,3,3-trifluoro-1-{4-[1-(2-{[6-(5-methoxypyrimidin-4-yl)-1H-benzimidazol-2-yl]amino}pyridin-4-yl)ethyl]piperazin-1-yl}propan-1-one], the IC50 came to 7.67 nM. Then `COc1c(NC2CC2)ncnc1-c1ccc2nc(Nc3cc(CN4CCN(C(=O)OC(C)(C)C)CC4)ccn3)[nH]c2c1` [Example 108.01, tert-butyl 4-{[2-({6-[6-(cyclopropylamino)-5-methoxypyrimidin-4-yl]-1H-benzimidazol-2-yl}amino)pyridin-4-yl]methyl}piperazine-1-carboxylate], with 35 nM; and `CC(c1ccnc(Nc2nc3ccc(-c4ccnn4C)cc3[nH]2)c1)N1CCN(C(=O)OC(C)(C)C)CC1` (single isomer, unassigned) [Example 123.01, tert-butyl 4-[(1R or 1S)-1-(2-{[6-(1-methyl-1H-pyrazol-5-yl)-1H-benzimidazol-2-yl]amino}pyridin-4-yl)ethyl]piperazine-1-carboxylate], with 36 nM; and `O=C(CC(F)(F)F)N1CCN(Cc2ccnc(Nc3nc4ccc(-c5cncnc5)cc4[nH]3)c2)CC1` [Example 45.01.01, 3,3,3-trifluoro-1-{4-[(2-{[6-(pyrimidin-5-yl)-1H-benzimidazol-2-yl]amino}pyridin-4-yl)methyl]piperazin-1-yl}propan-1-one], with 323 nM. With `COCc1cc(-c2ccc3nc(Nc4cc(CN5CCN(C(=O)CC(F)(F)F)CC5)ccn4)[nH]c3c2)ncn1` [Example 79.01, 3,3,3-trifluoro-1-(4-{[2-({6-[6-(methoxymethyl)pyrimidin-4-yl]-1H-benzimidazol-2-yl}amino)pyridin-4-yl]methyl}piperazin-1-yl)propan-1-one] the figure was 8.3 nM.
